Assay results taken from PubChem BioAssay (NCI).
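Cultured in 96-well plates, cells were exposed to test compound for 48 hours across five concentrations. GI50: concentration for 50% inhibition of growth. At the TGI there is no net growth.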

Tests used:
Experiment in all cases: growth of human tumour cells (NCI), 48 h
BT-549 breast = tested on: BT-549 breast
NCI-H226 lung = tested on: NCI-H226 lung
NCI-H460 lung = tested on: NCI-H460 lung
PC-3 prostate = tested on: PC-3 prostate
RPMI-8226 leukemia = tested on: RPMI-8226 leukemia
SF-539 CNS = tested on: SF-539 CNS
SK-MEL-5 melanoma = tested on: SK-MEL-5 melanoma
SK-OV-3 ovarian = tested on: SK-OV-3 ovarian
UACC-62 melanoma = tested on: UACC-62 melanoma
CCRF-CEM leukemia = tested on: CCRF-CEM leukemia

SMILES	GI50 (BT-549 breast) [µM]	TGI (BT-549 breast) [µM]	GI50 (NCI-H226 lung) [µM]	TGI (NCI-H226 lung) [µM]	GI50 (NCI-H460 lung) [µM]	TGI (NCI-H460 lung) [µM]	GI50 (PC-3 prostate) [µM]	TGI (PC-3 prostate) [µM]	GI50 (RPMI-8226 leukemia) [nM]	TGI (RPMI-8226 leukemia) [µM]	GI50 (SF-539 CNS) [µM]	TGI (SF-539 CNS) [µM]	GI50 (SK-MEL-5 melanoma) [µM]	TGI (SK-MEL-5 melanoma) [µM]	GI50 (SK-OV-3 ovarian) [µM]	TGI (SK-OV-3 ovarian) [µM]	GI50 (UACC-62 melanoma) [µM]	TGI (UACC-62 melanoma) [µM]	TGI (CCRF-CEM leukemia) [µM]	GI50 (CCRF-CEM leukemia) [nM]
Nc1cc(N)c2nc(-c3ccccc3)c(NCc3ccc(F)cc3)nc2c1	1.69	3.26	22.4	47.7	4.05	25.6	3.5	15.6	2540	6.25	1.83	3.54	1.88	3.61	12.9	26.4	15.4	29.5	–	–
O=c1[nH]c(-c2ccc(-c3nc4cc([N+](=O)[O-])ccc4c(=O)[nH]3)cc2)nc2cc([N+](=O)[O-])ccc12	–	–	–	> 100	–	> 100	–	–	–	> 100	–	> 100	–	> 100	–	> 100	–	> 100	> 100	–
CCOC(=O)C1=C(Nc2cccc3ccccc23)OC/C1=N\NC(=O)c1ccccc1O	–	–	–	> 100	–	> 71.4	–	–	–	> 100	–	46.8	–	37.4	–	> 100	–	48.9	37.1	–
O=C(Nc1nc(=S)c2c(ncn2CCO)[nH]1)c1ccccc1	–	–	–	> 100	–	> 100	–	–	–	> 100	–	> 100	–	> 100	–	> 100	–	> 100	> 100	–
Cc1c(Cl)cccc1NC1=C(Cl)C(=O)N(Cc2ccccc2)C1=O	–	–	12.1	38.4	11	30.2	4.85	19	1250	26.7	–	–	11.7	23.9	14.7	30.2	6.15	19.7	12.5	392
CS/C(=N\c1nccs1)NC(=O)c1cccc(Cl)c1	–	–	–	> 100	–	> 100	–	–	–	> 100	–	> 100	–	> 100	–	> 100	–	> 100	> 100	–
C=CCC(OCCOCC)c1cc(OCCOCC)ccc1OC (stereo not given)	–	–	–	> 100	–	> 100	–	–	–	> 100	–	> 100	–	> 100	–	> 100	–	> 100	> 100	–
CCNCCNc1cc(C2CCCCC2)c(C#N)c2nc3ccccc3n12	1.77	3.64	1.71	3.32	1.78	3.28	4.81	16	2110	5.02	–	–	1.71	3.1	1.81	3.48	1.9	3.75	3.28	1300
CCCC(Sc1ccccc1)P(=O)(c1ccccc1)c1ccccc1 (stereo not given)	–	–	–	–	–	> 100	–	–	–	51.8	–	> 100	–	87.2	–	50.7	–	37	> 100	–
COC(=O)c1cc(-c2cccn2C)c2c(c1C(=O)OC)c1ccccc1n2C	–	–	–	–	–	> 100	–	–	–	> 100	–	> 100	–	> 100	–	> 100	–	> 100	–	–
CCC1CCc2c(OC)ccc(OCC(=O)O)c2C1=O (stereo not given)	–	–	–	> 100	–	–	–	–	–	> 100	–	> 100	–	> 100	–	> 100	–	> 100	> 100	–
CCOC(=O)c1nc(Nc2ccc(Cl)cc2)c2ccccc2n1	10.2	25.5	–	–	9.44	23.7	11.6	> 50	11800	30.2	10.6	20.9	7.19	13.8	10.6	24	10	20.5	–	–
COC(=O)C1=C(C(=O)OC)SC(=C(N=Nc2ccccc2)c2ccccc2)S1	–	–	–	> 100	–	> 100	–	–	–	> 100	–	> 100	–	> 100	–	> 100	–	> 100	> 100	–
C=C1CCC2[C@@H](CCC3[C@]2(C)CCC[C@]3(C)C(=O)OC)C1CCO (stereo not given in full)	–	–	–	32.1	–	37.2	–	–	–	17	–	26.3	–	17.5	–	45.3	–	27.5	33.1	–
O=C1c2ccccc2CC1C1(O)C(=O)Nc2ccccc21 (stereo not given)	–	–	–	> 100	–	> 100	–	–	–	> 100	–	> 100	–	> 100	–	> 100	–	> 100	–	–
Cc1ccc(Sc2ccc(C)cc2[N+](=O)[O-])c([N+](=O)[O-])c1	–	–	–	> 100	–	> 100	–	–	–	> 100	–	> 100	–	> 100	–	> 100	–	> 100	> 100	–
COc1cc(/C=C/C(=O)c2sc(NNC(C)=O)nc2C)ccc1O	–	–	–	> 100	–	> 100	–	–	–	> 100	–	> 100	–	> 100	–	> 100	–	> 100	> 100	–
C=CC1C(OC2OC(CO)C(O)C(O)C2O)OC=C(C(=O)OC)C1CC=O (stereo not given)	–	–	–	> 100	–	–	–	–	–	> 100	–	> 100	–	> 100	–	> 100	–	> 100	–	–
CC1CCC(C(C)C)C(O[C@@H]2OC(=O)C[C@@H]2Sc2ccccc2)C1 (stereo not given in full)	–	–	–	–	–	69.5	–	–	–	34.7	–	61.8	–	30.3	–	91.7	–	> 100	26.8	–
C1CCOC2(CCC3(CC2)OCCCCO3)OC1	–	–	–	> 100	–	> 100	–	–	–	> 100	–	> 100	–	> 100	–	> 100	–	> 100	> 100	–
FC(F)(F)c1ccc(-c2cnc(Cl)nc2NCc2cc(C(F)(F)F)cc(C(F)(F)F)c2)cc1	5.59	> 100	2.61	> 100	3.16	> 100	–	–	3080	> 100	3.78	> 100	5.19	> 100	3.4	> 100	3.34	> 100	> 100	3820
CCC(/C=C/c1ccccc1)=N\Nc1ccc(Cl)c(Cl)c1	–	–	–	72.7	–	> 100	–	> 100	–	50.1	–	66.1	–	30	–	> 100	–	31.5	> 100	–
